Each structure is given as a SMILES string.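 Exposure lasted 48 hours, with cells grown in 96-well plates and compounds tested at five concentrations. TGI is the concentration that stops growth completely.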 Where a SMILES comes first, the peptide text is derived from it. [ ]: non-standard residue; d: D form. Ava = NCCCCC(=O)O; Mpa = O=C(O)CCS

Test systems include COLO 205 colon; HOP-62 NSCLC; MALME-3M melanoma; MDA-N; NCI-H23 lung; RXF 393 renal; SK-MEL-28 melanoma; SK-OV-3 ovarian; SNB-19 CNS.
What all share (experiment): inhibition of tumour cell growth, NCI panel, 48 h

Regarding `CCN(CC)Cc1cc(N=Nc2c(O)ccc3c(N=Nc4ccc(O)c(CN(CC)CC)c4)c(O)ccc23)ccc1O`, the TGI in the assay with COLO 205 colon is 3.6 µM; in the assay with HOP-62 NSCLC, 15.2 µM; with MALME-3M melanoma it was 21.5 µM; in the assay with MDA-N, 18 µM; with NCI-H23 lung it was 12.7 µM; in the assay on RXF 393 renal, above 23.1 µM. Moreover, the TGI was found to be 20 µM in the assay with SK-MEL-28 melanoma, 6.85 µM in the assay with SK-OV-3 ovarian and 15.6 µM with SNB-19 CNS.
Take `CCO/N=C\c1ccc2oc(-c3ccccc3)cc(=O)c2c1`: the TGI in the assay on COLO 205 colon was determined as 0.526 µM; in the assay with HOP-62 NSCLC it was 28.7 µM; in the assay with MALME-3M melanoma, 43.1 µM; in the assay with MDA-N, 0.105 µM; with NCI-H23 lung, 9.05 µM; in the assay on RXF 393 renal it was 11.6 µM. For the same compound, the TGI with SK-MEL-28 melanoma was above 100 µM; in the assay with SK-OV-3 ovarian, 24 µM; in the assay with SNB-19 CNS it was 19.8 µM.
With `CC(NC(=O)CCS)C(=O)NC(C)C(=O)NC(Cc1c[nH]c2ccccc12)C(=O)NC(Cc1c[nH]cn1)C(=O)NC(CO)C(=O)NC(Cc1c[nH]c2ccccc12)C(=O)NCCCCC(=O)NC(C)C(=O)NC(CCC(N)=O)C(=O)NC(CCCCN)C(=O)NC(C)C(=O)NC(CCCNC(=N)N)C(=O)NC(CCCCN)C(N)=O` (stereo not drawn) ([Mpa]AAWHSW[Ava]AQKARK-NH2; configuration not given here), the TGI was above 100 µM in the assay on COLO 205 colon; above 100 µM in the assay on HOP-62 NSCLC; 36.9 µM with MALME-3M melanoma; above 100 µM in the assay with MDA-N; above 100 µM with NCI-H23 lung; above 100 µM in the assay with RXF 393 renal. For the same compound, the TGI in the assay with SK-MEL-28 melanoma, with SK-OV-3 ovarian and in the assay on SNB-19 CNS was above 100 µM each time.
On to `CCC(C)C(Nc1c2ccccc2nc2c(C(=O)NCCN(C)C)cccc12)C(=O)O` (stereo not drawn), for which the TGI in the assay with COLO 205 colon was above 100 µM; with HOP-62 NSCLC it was above 100 µM; with MALME-3M melanoma, 35.1 µM; with MDA-N it was 86.4 µM; in the assay on NCI-H23 lung, 79.3 µM; with SK-MEL-28 melanoma, 67.1 µM. Further, the TGI with SK-OV-3 ovarian and with SNB-19 CNS was above 100 µM throughout.
With `CCOC(=O)NC(Nc1ccc(F)cc1F)(C(F)(F)F)C(F)(F)F`, the TGI in the assay on COLO 205 colon, with HOP-62 NSCLC, in the assay with MALME-3M melanoma, in the assay with MDA-N, in the assay with NCI-H23 lung and in the assay on RXF 393 renal was above 100 µM in each case. Moreover, the TGI with SK-MEL-28 melanoma, in the assay with SK-OV-3 ovarian and in the assay on SNB-19 CNS was above 100 µM throughout.
On to `CCCCn1c(=O)[nH]c2c(N)ncnc21`, for which the TGI with COLO 205 colon, in the assay on HOP-62 NSCLC, with MALME-3M melanoma, in the assay on MDA-N, with NCI-H23 lung and with RXF 393 renal was above 100 µM throughout. The TGI with SK-MEL-28 melanoma, with SK-OV-3 ovarian and in the assay with SNB-19 CNS was above 100 µM throughout.
In the case of `CC(C#N)(NO)C(C)(C#N)NO` (stereo not drawn), the TGI in the assay on COLO 205 colon, in the assay with MALME-3M melanoma, in the assay with MDA-N, in the assay with NCI-H23 lung, in the assay with RXF 393 renal and in the assay on SK-MEL-28 melanoma was above 100 µM throughout. Besides, the TGI in the assay with SK-OV-3 ovarian and in the assay with SNB-19 CNS was above 100 µM each time.
Take `COc1ccc(N2C(=O)C3ON(Cc4ccc(CC(N)=O)cc4)C(c4c5ccccc5c(C)c5ccccc45)C3C2=O)cc1` (stereo not drawn): the TGI was above 100 µM in the assay on HOP-62 NSCLC; above 100 µM in the assay on MALME-3M melanoma; above 100 µM in the assay with MDA-N; above 100 µM in the assay on NCI-H23 lung; 48.8 µM in the assay on RXF 393 renal; above 100 µM in the assay with SK-MEL-28 melanoma. Further, the TGI in the assay on SK-OV-3 ovarian and in the assay on SNB-19 CNS was above 100 µM in each case.
For `CC1=C(C)C(=O)OC(C(C)(O)C2(O)CC3OC34C3CC(O)C56OC5C=CC(=O)C6(C)C3CCC42C)C1` (stereo not drawn), the TGI in the assay with COLO 205 colon was above 29 µM; with HOP-62 NSCLC, 35.4 µM; with MALME-3M melanoma it was 3.53 µM; with MDA-N, 15.5 µM; with NCI-H23 lung, 8.64 µM; in the assay on RXF 393 renal, 6.68 µM. For the same compound, the TGI in the assay with SK-MEL-28 melanoma is 4.24 µM; in the assay with SK-OV-3 ovarian, 14.2 µM; in the assay on SNB-19 CNS it was 19.9 µM.
Turning to `COc1ccc(SCc2cc(OC)ccc2OC)cc1`, the TGI was above 61 µM in the assay on COLO 205 colon; above 100 µM with HOP-62 NSCLC; above 100 µM with MALME-3M melanoma; 32.7 µM in the assay with MDA-N; above 100 µM with NCI-H23 lung; above 100 µM with RXF 393 renal. Besides, the results for the TGI in the assay on SK-MEL-28 melanoma, in the assay on SK-OV-3 ovarian and with SNB-19 CNS were above 100 µM, above 71.8 µM and above 100 µM, respectively.
Turning to `O=C(N/N=C\c1ccc(Cl)cc1)Nc1ccc2ccccc2c1`, the TGI is above 100 µM with COLO 205 colon; 51.3 µM with HOP-62 NSCLC; above 100 µM with MALME-3M melanoma; above 100 µM in the assay on MDA-N; above 100 µM in the assay with NCI-H23 lung; above 100 µM in the assay with RXF 393 renal. The TGI in the assay with SK-MEL-28 melanoma, with SK-OV-3 ovarian and in the assay on SNB-19 CNS was above 100 µM each time.
Take `Cc1ccc([N+](=O)[O-])cc1S(=O)(=O)Nc1ccc(C2=NN(S(=O)(=O)c3cc([N+](=O)[O-])ccc3C)C(c3cccs3)C2)cc1` (stereo not drawn): the TGI in the assay with COLO 205 colon was 25.3 µM; with HOP-62 NSCLC it was above 100 µM; in the assay on MALME-3M melanoma, above 100 µM; in the assay on MDA-N, above 100 µM; with NCI-H23 lung it was 59.9 µM; in the assay on RXF 393 renal it was above 100 µM. Moreover, the TGI with SK-MEL-28 melanoma, in the assay with SK-OV-3 ovarian and in the assay with SNB-19 CNS was above 100 µM throughout.
`CN(C)N1C(=O)C(=O)N(c2cccc3ccccc23)C1=O`: the TGI in the assay on COLO 205 colon, with HOP-62 NSCLC, with MALME-3M melanoma, with MDA-N, in the assay with NCI-H23 lung and in the assay with RXF 393 renal was above 10 µM each time. Further, the TGI in the assay on SK-MEL-28 melanoma, in the assay with SK-OV-3 ovarian and with SNB-19 CNS was above 10 µM throughout.
With `COC(=O)C1(Cc2ccc3c(c2)CCC3)Cc2ccc3c(c2C1=O)CCC3` (stereo not drawn), the TGI is 9.16 µM in the assay with COLO 205 colon; above 100 µM in the assay with HOP-62 NSCLC; above 63.8 µM in the assay with MALME-3M melanoma; 5.78 µM in the assay on MDA-N; above 71.6 µM in the assay with NCI-H23 lung; 22.7 µM in the assay on RXF 393 renal. Besides, the TGI with SK-MEL-28 melanoma, with SK-OV-3 ovarian and in the assay on SNB-19 CNS was above 100 µM each time.
